The subject of series [1] is MDA-kb2 cell line. Briefly: Cytotoxicity in MDA-kb2 cells.
Series [2] can be described thus: Solubility in phosphate buffer and cell culture media. Type of series: physicochemical. The following applies: highest concentration tested per footnote f.
Series [3] deals with MDA-kb2 cell line.

Read-outs that look alike come from different tables or passages of the source. Marks after values point to notes of the source that are not given here. Bounds are passed on as bounds.

For `CO[C@H]1[C@H](OC(=O)c2ccc(C)[nH]2)[C@H](O)[C@@H](Oc2ccc3c(O)c(NC(=O)c4c[nH]c(C(=O)Nc5c(O)c6ccc(O[C@H]7OC(C)(C)[C@@H](OC)[C@H](OC(=O)c8ccc(C)[nH]8)[C@@H]7O)c(C)c6oc5=O)c4C)c(=O)oc3c2C)OC1(C)C` [Coumermycin A1, coumermycin A1], in the series on MDA-kb2 cell line [1] (concentration at which cell viability was reduced by 50%, Promega Cell Titer Glo kit), the “MDA-kb2 cell culture LC50” value turned out to be 19.1 ± 9.1 µM. Further, the “Cytotoxicity in MDA-kb2 cells (result in words)” value in the series on MDA-kb2 cell line [1] (same conditions as the reporter assay) is “some accompanying toxicity”.

Consider `COC1=C2C[C@@H](C)C[C@H](OC)[C@H](O)[C@@H](C)/C=C(\C)[C@H](OC(N)=O)[C@@H](OC)/C=C\C=C(/C)C(=O)NC(=CC1=O)C2=O` [Geldanamycin, geldanamycin], for which, in series [2], the “Solubility limit in cell culture media” value is listed as >2^f μM. Moreover, the “MDA-kb2 cell culture LC50” value in the series on MDA-kb2 cell line [3] is >2^f μM.

In the case of `CO[C@@H]1[C@@H](OC(N)=O)[C@@H](O)[C@H](Oc2ccc3c(O)c(NC(=O)c4ccc(O)c(CC=C(C)C)c4)c(=O)oc3c2C)OC1(C)C` [Novobiocin, novobiocin], in the series with MDA-kb2 cell line [3], the “Cytotoxicity in MDA-kb2 cells (result in words)” value is listed as “some accompanying toxicity” and the “MDA-kb2 cell culture LC50” value came to 690 ± 188 µM.

For the origin of these results see PMC4847944 (Bioorganic & medicinal chemistry, 2014).
